US20250339402A1, “EFFECTIVE MEANS TO MODULATE NMDA RECEPTOR-MEDIATED TOXICITY” (FUNDAMENTAL PHARMA GMBH, priority 2022, published 2025)
“Also recorded” adds a separate entry of the source. Structures can show the parent of a compound that is named as a salt.

How the values were obtained:
Assay type in all cases: cell-based
[1] = system: Primary mouse hippocampal neurons; assay: Excitotoxic (glutamate/NMDA-induced) cell death in primary neuronal cultures, protection index; conditions: first subset; protection index from area above curve over 24 h glutamate/NMDA insult; compounds added 30 min before; 10 μM, Group A also at lower concentrations
Experimental: Primary mouse hippocampal neurons were prepared as previously described (Bading & Greenberg, Science, 1991; 253: 912-914; Zhang et al, Neuron, 2007, 53: 549-562) and maintained in Neurobasal-A medium supplemented with 2% B27, 5 mM L-Glutamax, and 0.5% Penicillin/Streptomycin until challenged with NMDA on days in vitro (DIV) 10. Glutamate-induced cell death was analyzed in a real-time manner by monitoring nuclear localized mCherry with IncuCyte® S3 Live-Cell Analysis System (Sartorius AG, Germany). Primary neurons plated in 24 well plates were infected with rAAV-hSyn-mCherry on DIV3 and challenged with 1 μM or 20 μM glutamate on DIV10. All compounds were added to the culture 30 min prior to glutamate/NMDA insult. Images were acquired following the glutamate application for 24 h with a 2 h interval, where 9-16 images were obtained via a 20×objective for each condition at each time point. Cell deaths were quantified by analyzing the existence of nuclear localized mCheery via the Basic Analyzer with Incucyte® 2021 software, size and average intensity were used as exclusion criteria.
In order to evaluate the protective effects of various compounds, a quantification method was developed to determine each compound's protection index. The protection index (from 0.0 to 10.0) was calculated by the area above the curve (AAC) during a 24 h excitotoxic stimuli, where the cell survival was normalized to the 0 h (FIG. 2), following the equation: […]
Where AAC represents for each compound, AACbasal represents for the basal condition without excitotoxic insult, AACVeh represents for the vehicle control with excitotoxic insult. Based on the equation, vehicle (DMSO) has a protection index at 0.0 and compound P401 of WO 2020/079244 has a protection index at 6.0 (at 10 μM).
The inventors also performed experiments with Group A compounds at lower concentration in a 3-fold dilution matter ([…]: 3.0, 1.0, 0.3, 0.1, 0.03) and were able to achieve a similar protection effect as 10 μM compound P401, but at a lower concentration.

[2] = molecular target: T1, NMDAR/TRPM4 complex (Homo sapiens, UniProt Q8TD43); assay: Co-immunoprecipitation of TRPM4 and NMDA receptor subunits, Western blot; conditions: 10 μM for 30 min; lysates of human iPSC-derived brain organoids precipitated with anti-TRPM4; FIG. 5; hydrochloride
T1 construct: endogenous in cells; host or cells: human iPSC-derived brain organoids, week 25
Experimental: All procedures for co-immunoprecipitation were carried out at 4° C. Human iPSC derived brain organoids were cultured in Falcon@6 well TC-treated cell culture plate to week 25 as described (Bauersachs H G et al, Neuroscience, 2022; 484:83-97), which allows an abundant expression of both GluN2A/GluN2B/TRPM4 expression. 6 brain organoids were incubated with 10 μM compound 120 for 30 min, washed twice with ice-cold PBS and then lysed in 500 μL immunoprecipitation buffer (10 mM Tris, pH 8.0, 150 mM NaCl, 1 mM EDTA, 1% NP-40, 10% glycerol with EDTA-free Protease Inhibitor Cocktail (Roche). The lysate was incubated while rotating for 60 min, centrifuged for 12 min at 1,200×g to remove cell debris and nuclei. 10% of the supernatant was boiled with Laemmli buffer for input samples analysis. The rest of the supernatant was mixed with anti-TRPM4 antibody (1:200) overnight. The mixture was then incubated with Pierce™ Protein A Magnetic Beads for another 12 h to pull down antibody complex, and washed with immunoprecipitation buffer to remove any unspecific bindings. After the last washing, the supernatant was carefully removed, and the precipitate pellets were boiled in Laemmli buffer. Both input and precipitate samples were stored at −20° C. until analysed with western blots. […]

[3] = system: human iPSC-derived prefrontal cortex organoids; assay: Cell survival after glutamate/NMDA treatment in prefrontal cortex organoids (RealTime-Glo MT Cell Viability Assay); conditions: pre-incubation 30 min, 200 μM NMDA for 24 h; compared with P401; FIG. 4; hydrochloride
Experimental: Prefrontal cortex organoids were generated based on published literature (Bauersachs H G et al, Neuroscience, 2022; 484:83-97). Around week 20, organoids were pre-incubated with compound 120 for 30 min before challenged with 200 μM NMDA for 24 h, where 80% of neuron will undergo necrosis. The cell death was monitored and analyzed with a RealTime-Glo™ MT Cell Viability Assay (Promega, G9711) following the manufacture's instruction using a plate reader (luciferase). The cell survival (%) can be calculated by the following equation: […]
Where Ft is the luciferase intensity at each time point and Fbasal is the basal luciferase intensity before glutamate/NMDA insult to diminish the difference between different organoids. The Control and FControlBasal stands for the same in untreated organoids, therefore the cell death can be calculated by normalization to the healthy organoids.

T1 sequence (Q8TD43 whole entry, one chain of several): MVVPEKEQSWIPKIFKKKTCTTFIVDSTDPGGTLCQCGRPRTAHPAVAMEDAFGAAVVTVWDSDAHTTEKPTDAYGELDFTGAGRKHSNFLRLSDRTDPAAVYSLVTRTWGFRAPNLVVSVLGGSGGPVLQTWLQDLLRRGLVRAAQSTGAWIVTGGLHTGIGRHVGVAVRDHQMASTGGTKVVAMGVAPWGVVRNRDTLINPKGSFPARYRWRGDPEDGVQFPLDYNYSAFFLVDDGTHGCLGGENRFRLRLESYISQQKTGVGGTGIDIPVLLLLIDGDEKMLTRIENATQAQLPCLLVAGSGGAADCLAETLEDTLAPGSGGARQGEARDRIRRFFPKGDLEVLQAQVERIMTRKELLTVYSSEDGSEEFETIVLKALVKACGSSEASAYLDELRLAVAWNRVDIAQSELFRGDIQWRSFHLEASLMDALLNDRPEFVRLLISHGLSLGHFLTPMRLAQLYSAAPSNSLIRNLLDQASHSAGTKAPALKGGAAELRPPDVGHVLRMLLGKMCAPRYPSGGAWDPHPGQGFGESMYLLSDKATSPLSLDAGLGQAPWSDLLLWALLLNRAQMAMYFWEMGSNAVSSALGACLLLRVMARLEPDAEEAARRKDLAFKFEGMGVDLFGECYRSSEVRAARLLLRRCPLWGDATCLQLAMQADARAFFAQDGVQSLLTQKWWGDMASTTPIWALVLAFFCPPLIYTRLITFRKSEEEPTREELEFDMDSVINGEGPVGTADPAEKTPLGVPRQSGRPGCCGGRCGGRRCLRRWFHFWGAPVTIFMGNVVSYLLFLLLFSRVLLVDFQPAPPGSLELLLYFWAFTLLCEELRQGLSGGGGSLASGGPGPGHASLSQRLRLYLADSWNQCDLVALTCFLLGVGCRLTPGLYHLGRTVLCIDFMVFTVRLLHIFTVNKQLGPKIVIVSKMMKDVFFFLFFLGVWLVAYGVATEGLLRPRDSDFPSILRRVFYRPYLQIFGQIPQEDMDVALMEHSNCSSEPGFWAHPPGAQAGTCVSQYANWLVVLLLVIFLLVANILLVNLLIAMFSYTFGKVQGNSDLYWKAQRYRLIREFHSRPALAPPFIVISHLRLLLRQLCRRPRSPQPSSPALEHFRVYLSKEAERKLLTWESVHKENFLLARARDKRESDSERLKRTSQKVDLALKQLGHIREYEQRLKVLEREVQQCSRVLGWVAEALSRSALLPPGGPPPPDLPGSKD

SMILES: NCCN(Cc1cccc(Cl)c1F)C1CC1 [Compound 120, N1-(3-chloro-2-fluorobenzyl)-N1-cyclopropylethane-1,2-diamine hydrochloride]
- Biological Activity Rating [1]: A+++ (With a protection index between 5.0 to 7.0, provides a comparable protection to compound P401 (10 μM) at 0.3 μM.)
- disruption of NMDAR/TRPM4 complex [2]: the NMDAR/TRPM4 complex was disrupted; also recorded: disrupts the NMDAR/TRPM4 complex
- cell survival (%) after glutamate/NMDA treatment [3]: superior protection over compound P401; also recorded: improves cell survival after glutamate/NMDA treatment
